Measurements taken from patent US4459232A, “Imidazo[1,2-c][1,3]benzodiazepines” (Ciba-Geigy Corporation, priority 1982, dated 1984).

Legend:
rats = test: conditioned avoidance behavior (lever press to avoid foot shock) in rats; assay type: in vivo; conditions: Rattus norvegicus, oral, read-out: oral dose that disrupts avoidance behavior (decreases avoidance responses)
Method: (§1) Each lever press postpones the shock for 30 seconds. Whenever the animal fails to press the lever once within said period, brief (0.5 sec.) shocks are delivered at 15 second intervals until the animal again presses the lever. Under control conditions the animals press the lever at a moderately steady rate and seldom receive more than five or six shocks during a 25-minute (rats) and up to 4-hour experimental session. Said compounds evaluated for neuroleptic activity, are administered to the animals 30, 90, 210 minutes prior to the experimental session and block the learned conditioned avoidance behavior, manifested by a decrease in avoidance responding with a marked increase in shocks taken by the animal. Both the avoidance responses and failures (shocks received) are recorded separately for evaluation.
(§2) Indicative of the antipsychotic utility of the compounds of this invention, e.g., the compound of example 1, namely 5-(4-methyl-1-piperazinyl)-11H-imidazo[1,2-c][1,3]benzodiazepine disrupts avoidance behavior, e.g. decreases avoidance responses in rats and monkeys at an oral dose of 30 mg/kg or lower.

monkey = test: extrapyramidal side effects (dyskinesias, dystonias) in the monkey; assay type: in vivo
[1] = molecular target: histamine activation of adenylate cyclase; test: inhibition of histamine activation of adenylate cyclase in vesicles of guinea pig cerebral cortex; assay type: biochemical; conditions: 50 micromolar histamine
Method: Finally, said antihistaminic properties can be shown in vitro, e.g., according to Chasin et al., J. Neurochem. 22, 1031 (1974). Vesicles from a cell free preparation of guinea pig cerebral cortex are preincubated with ^3 H-adenine to form endogenous ^3 H-adenosine triphosphate. The vesicles are then incubated with 50 micromolar histamine to activate ^3 H-cyclic adenosine monophosphate synthesis in the absence or presence of the test compound at a concentration between 0.01 and 100 micromolar. When said compound is active, it inhibits the histamine activation of adenylate cyclase. The IC50 represents the concentration at which histamine activation is inhibited by 50%.

monkeys = test: conditioned avoidance behavior (lever press to avoid foot shock) in monkeys; assay type: in vivo, squirrel monkey; conditions: Primates, oral, read-out: oral dose that disrupts avoidance behavior (decreases avoidance responses)
Method: as §1, §2

α-adrenergic = α-adrenergic blocking activity in vitro; assay type: biochemical

## CN1CCN(C2=Nc3ccccc3Cc3nccn32)CC1 [example 1, 5-(4-methyl-1-piperazinyl)-11H-imidazo[1,2-c][1,3]benzodiazepine]
rats
  minimal effective dose: ≤ 30 mg/kg
monkey
  extrapyramidal side effects, e.g. dyskinesias and dystonias: essentially free of extrapyramidal side effects
[1]
  IC50: ~1000 nM
monkeys
  minimal effective dose: ≤ 30 mg/kg
α-adrenergic
  α-adrenergic blocking activity: only minimal α-adrenergic blocking activity
